Measurements taken from article PMC8557901 (Microbiology Spectrum, 2021).

Key:
[1] = system: P. yoelii in mice and Anopheles stephensi; assay: In vivo transmission-blocking mosquito feeding assay; settings: for No. of mosquitoes infected/total no. of mosquitoes (%): untreated 82.8; for No. of oocysts per mosquito: untreated 106; for Mean % parasitemia ± SD: day 4 p.i. in mice prior to mosquito feeding, untreated 0.97 ± 0.17; for Mean % gametocytemia ± SD: day 4 p.i. in mice, untreated 0.05 ± 0.004
Procedure: Experimental mice were infected by i.p. inoculations of 10^7 erythrocytes parasitized with P. yoelii GOMO 15 to test the effect of M1 following two different protocols of drug treatment. Infected mice were randomly allocated into 6 groups (5 mice per group) corresponding to the 3 conditions (control [solvent], M1 50 mg/kg, and PQ 50 mg/kg) in both drug administration protocols. For the first protocol, mice were treated daily from day zero to day 3, while for the second protocol, treatment was administered only once, 4 days after the infection and 2 h before mosquito feeding ([37]). At day 3 p.i., the presence and maturity of gametocytes was checked by microscopic examination of Giemsa-stained thin blood films and live-blood observation to assess microgamete exflagellation density. Mice were then anesthetized and placed according to the treatment on the top of individual cages containing 100 glucose-starved Anopheles stephensi female mosquitoes, which were allowed to feed for 1 h. Unfed mosquitoes were removed from the cages. Seven days after the infectious blood meal, 30 mosquitoes were dissected and their midguts examined using a phase-contrast microscope (400×) to assess the presence of oocysts. Two weeks after the blood meal, the salivary glands of 30 mosquitos were dissected to estimate the average number of sporozoites per mosquito in each group.

[2] = design: method as in PMID 25791675; settings: cited from earlier work
[3] = Cytotoxicity on HepG2 cell line (MTT); format: cell-based; settings: human, HepG2 cells
Procedure: The evaluation of the cytotoxicity of the tested molecules on the HepG2 cell line was performed according to the method of Mosman ([42]) with slight modifications. […] Triplicate assays were performed for each sample. Each well was then examined under a microscope to detect possible precipitate formation before the medium was aspirated from the wells. An amount of 100 μl of MTT solution (0.5 mg/ml in medium without FBS) was then added to each well. […] After this time, the MTT solution was removed and DMSO (100 μl) was added to dissolve the resulting blue formazan crystals. Plates were shaken vigorously (700 rpm) for 10 min. The absorbance was measured at 570 nm with 630 nm as the reference wavelength using a Tecan Infinite F-200 microplate reader. DMSO was used as a blank and doxorubicin as a positive control. Cell viability was calculated as the percentage compared to the control (cells incubated without compound). […] CC50 values represent the mean values calculated from three independent experiments.

[4] = system: P. falciparum F32-ART5 (artemisinin-resistant); assay: Standard in vitro chemosensitivity assay (hypoxanthine uptake), F32-ART5; format: cell-based; settings: Plasmodium falciparum, F32, 48 h, read-out: Mean EC50 ± SD
Procedure: The Plasmodium falciparum artemisinin-resistant strain F32-ART5 and its twin artemisinin-sensitive line F32-TEM ([30], [31]) were cultivated at 37°C with 5% CO2 in human red blood cells (EFS [French Blood Bank]) diluted to 2% hematocrit in RPMI 1640 medium supplemented with 5% human serum (EFS) as previously reported ([47]).
In vitro susceptibility of P. falciparum parasites was determined by using the standard hypoxanthine uptake inhibition assay as described previously ([51]) with some modifications ([52]). After D-sorbitol treatment, parasites synchronized at the ring stage were exposed for 48 h, with [^3H]hypoxanthine (Perkin Elmer, France), to a range of concentrations of the different tested compounds. […] Each result represents 3 independent experiments.

[5] = system: P. yoelii (GFP-luc strain); assay: In vivo liver-stage assay in mice infected with P. yoelii sporozoites; design: species or system BALB/c mice
Procedure: Five mice per treatment group were used. Experimental groups were treated with 50 and 100 mg/kg of M1 intraperitoneally (i.p.). Untreated infected mice and noninfected mice (infection controls), as well as primaquine-treated (50 mg/kg) mice (control drug), were also included. The drugs were administered on days −1, 0, and +1, and mice were challenged on day zero by retroorbital injection of P. yoelii (GFP-luc strain) sporozoites (10,000 per mouse). In vivo bioluminescence imaging was performed 44 h postinfection on day 2, to assess liver-stage development. When parasites were detected in the liver, treatment was continued until day 5 and in vivo imaging was performed on days 3 and 6, to evaluate a prepatent period for the blood-stage parasites in mice after the sporozoite inoculation. In vivo imaging and blood smears were performed to monitor blood-stage development using methods described previously ([45]). This experiment was performed twice.
IVIS Spectrum (Caliper Life Science, Hanover, MD) was used to capture bioluminescence signals. Prior to analysis, the mice were injected i.p. with D-luciferin (100 mg/kg), anesthetized with isoflurane, and imaged 10 min postinjection. Images were analyzed using the Living Image 3.0 software (Caliper Life Sciences, Hanover, MD).
In order to study the in vivo efficacy of M1 without any hepatic CYP metabolism, we conducted an experiment using 1-aminobenzotriazole (ABT), a nonselective inhibitor of cytochrome P450 enzymes ([34], [35]). ABT was administered to mice i.p. 1 h before each treatment with 50 mg/kg gamhepathiopine for 3 days starting from the day before sporozoite inoculation.

[6] = 50 mg/kg i.p. every day D0 to D3
[7] = 50 mg/kg i.p. on day 3, 2 h before feeding

Cc1ccc(-c2cc3nc(NC(C)(C)C)[nH]c(=O)c3s2)cc1 [Metabolite M1, 2-(tert-Butylamino)-6-(p-tolyl)thieno[3,2-d]pyrimidin-4(3H)-one]
reduction in parasitemia before mosquito feeding ([1]; 50 mg/kg during D0 to D3, day 4): 50%
No. of mosquitoes infected/total no. of mosquitoes (%) [1, 6]: 25/35 (71.4) %
No. of oocysts per mosquito [1, 6]: 32
No. of mosquitoes infected/total no. of mosquitoes (%) [1, 7]: 13/35 (37.1) %
No. of oocysts per mosquito [1, 7]: 1
Mean % parasitemia ± SD [1, 6]: 0.47 ± 0.24%
Mean % parasitemia ± SD [1, 7]: 0.99 ± 0.34%
Mean % gametocytemia ± SD [1, 6]: 0.04 ± 0.009%
Mean % gametocytemia ± SD [1, 7]: 0.04 ± 0.01%
Ames test [2]: negative
CC50 at 72 h [3]: 24 µM
EC50 [4]: 0.227 ± 0.04 µM
development of liver-stage parasites in vivo at day 2 ([5]; 50 mg/kg i.p., 44 h postinfection, bioluminescence): did not prevent the development of liver-stage parasites
blood-stage parasitemia after sporozoite infection ([5]; 50 mg/kg, blood smears days 3 and 6): reduced the burden of blood-stage parasites
in vivo activity against the hepatic stages with ABT cotreatment ([5]; M1 50 mg/kg with 1-aminobenzotriazole 50 mg/kg i.p.): improved
